Source: patent US20230020329A1, “Annelated 9-hydroxy-1,8-dioxo-1,3,4,8-tetrahydro-2H-pyrido[1,2-a]pyrazine-7-carboxamides as HIV integrase inhibitors, methods of preparation and application thereof” (priority 2019, published 2023)
In brackets after ≈: the same amount, converted by molar mass. Where two headings read alike, the source gives them in different places. Blank lines part the entries; values can stand above or below the compound they belong to.

Legend:
[1] = Thermodynamic (shake-flask) solubility; type: physicochemical; conditions: for solubility at 24 h: thermodynamic from solid
Procedure: The test compound of general formula 1 or 2 (2 mg) was weighed into a glass vial. The pION universal buffer (0.5 ml) with pH 7.4 or deionized water was added to appropriate vials. The vials were tightly closed with a lid, placed on a rotating shaker, and incubated for 24 hours to balance the solution and the solid phase at the saturation point. Each resulting solution (200 μl) was taken (in duplicate) from the vials, placed in a 96-well MultiScreen Solubility Filter Plate (Millipore), and filtered using vacuum ([…]) into a polypropylene plate with a U-shaped bottom. If necessary, the filtrates were diluted with an appropriate buffer (water). Then, 120 μl of the filtarate (or a diluted filtrate) was transferred to a 96-well plate with a UV-transparent bottom and 60 μl/well of acetonitrile and 20 μl/well of DMSO were added and thoroughly mixed with a multichannel pipette (acetonitrile and DMSO were added to obtain a required composition of calibration standards, as described below). The optical density of the resulting solutions was measured on a multifunction Infinite 200 PRO plate reader in the wavelength range from 240 nm to 400 nm in steps of 10 nm. The value of ODλ for solutions was assessed at a wavelength chosen for plotting a calibration curve.
The concentration of a substance in the solution after the solubility test was evaluated using a calibration curve. A stock solution in DMSO with a concentration of 2 mg/ml was prepared from a separate sample. […] The range of final concentrations of the calibration curve was 0.2; 0.1; 0.05; 0.025; 0.0125; 0.00625, and 0 mg/ml. Calibration solutions were prepared in a 96-well UV plate as follows: 20 μl of a 10-fold stock solution in DMSO, 60 μl of acetonitrile, and 120 μl of the appropriate buffer were added to the well and stirred. The optical density of the resulting solutions was measured on a multifunction Infinite 200 PRO plate reader in the wavelength range from 240 nm to 400 nm with a step of 10 nm. The optimal wavelength typically corresponding to the absorption maximum was chosen, and a linear dependence of OD at a given wavelength on the concentration of the compound was obtained.
The concentration of the compound in the filtrate after the solubility test was calculated according to the formula:
shake-flask solubility=(ODλfiltrate−ODλblank)/(slope×1.67×filtrate dilution)
wherein slope means the slope of the calibration curve; 1.67 is the filtrate acetonitrile+DMSO dilution ratio; filtrate dilution is an additional dilution of the filtrate, if applicable.

HIV [2] = conditions: depending on the method of analysis; read-out: Inhibitory activity EC50 (literature); cited from earlier work
[3] = Pharmacokinetics in rat plasma, IV and oral; type: in vivo, male Sprague-Dawley rats; conditions: for Cmax: read-out: Cmax; for Tmax: read-out: Tmax
Procedure: The research was carried out on male Sprague-Dawley rats obtained from Charles River Laboratories (Germany). […] The age of the animals at the time of administration was 8-10 weeks. The animals were pre-catheterized so that all blood samples during the study of each substance could be taken from the same animals. Each substance was tested in 3 animals at each route of administration. The solution of test substances with a concentration of 0.2 mg/ml in 10% DMSO/10% Solutol/80% 0.05M N-methylglucamine was administered to rats intravenously in the tail vein at a dose of 1 mg/kg. Blood samples were collected at 5, 15, 30 min, 1, 2, 4, 8, and 24 hours after administration. Intragastric administration involved gavage using a solution with a concentration of 0.5 mg/ml in 0.5% methylcellulose at a dose of 5 mg/kg. Blood samples were collected at 15, 30 min, 1, 2, 4, 8, and 24 hours after administration. Blood (0.2 ml) was collected in polypropylene tubes containing 20 μl of 5% NaEDTA. Blood plasma was separated by centrifugation at 1500×g for 10 min and stored until testing at a temperature of −80° C. A pure acetonitrile-water (1:1) mixture (5 μl) was added to 45 μl of test samples. The samples were vortexed thoroughly for 10 seconds. Tolbutamide (100 μl) chilled to +4° C. (200 ng/ml in MeCN) was added to the samples and the mixture was vortexed. The samples were precipitated on ice at +4° C. for 15 minutes and then centrifuged at 2700 g for 10 min at +4° C. Supernatants (100 μl each) were transferred to a blank plate for HPLC/MS/MS analysis. The HPLC/MS/MS analysis was performed using an Agilent 1290 Infinity system coupled to an AB Sciex QTrap 6500 mass spectrometer. Pharmacokinetic analysis of plasma concentration vs time data was performed by a model-independent method using the Phoenix™ WinNonlin® 6.3 software (Pharsight Corp.). […]

HIV [4] = conditions: read-out: EC50 in WO 2014/100323; cited from earlier work
HIV [5] = assay: EC50 reported in WO 2014/100323; type: cell-based; conditions: A4 vs BIC; A5 vs A6
Description: Specifically, only two inhibitors—A4 and A5—are known to comprise a pyridin-2-ylmethyl moiety instead of a benzyl moiety [WO 2014/100323].

[6] = male, Sprague-Dawley, rat plasma, IV 1 mg/kg
[7] = male, Sprague-Dawley, rat plasma, oral 5 mg/kg

- solubility at 24 h ([1]; aqueous buffer, pION universal buffer pH 7.4, 24 h, read-out: Solubility, pH 7.4, value): 5 µg/mL (≈ 12.3 µM)
- Solubility, water, value ([1]; deionized water, 24 h): 8 µg/mL (≈ 19.7 µM)
- solubility at 24 h ([1]; deionized water, water, read-out: Solubility in water): 8 µg/mL (≈ 19.7 µM)
- bioavailability ([3]; male, Sprague-Dawley, plasma, rat, oral 5 mg/kg vs IV 1 mg/kg, F=(AUClast PO/5·AUClast IV)·100): 8.8%
- AUC(0-inf) [3, 6]: 232 µg·h/mL
- AUC(0-t) [3, 6]: 141 µg·h/mL
- MRT last [3, 6]: 9.19 h
- half-life [3, 6]: 18.3 h
- Cmax [3, 6]: 17000 ng/mL
- Tmax [3, 6]: 0.08 h
- AUC(0-inf) [3, 7]: 158 µg·h/mL
- AUC(0-t) [3, 7]: 62.3 µg·h/mL
- MRT last [3, 7]: 8.05 h
- half-life [3, 7]: 19.1 h
- concentration at 8 h ([3]; male, Sprague-Dawley, rat plasma, oral 5 mg/kg, 8 h, read-out: C8 h): 4340 ng/mL
- concentration at 24 h ([3]; male, Sprague-Dawley, rat plasma, oral 5 mg/kg, 24 h, read-out: C24 h): 1840 ng/mL
- Cmax [3, 7]: 5210 ng/mL
- Tmax [3, 7]: 4.67 h
- kel ([3]; rat plasma, IV 1 mg/kg): 0.04 h⁻¹
- kel ([3]; rat plasma, oral 5 mg/kg): 0.04 h⁻¹
SMILES: C[C@H]1CO[C@@H]2Cn3cc(C(=O)NCc4ccc(F)cc4F)c(=O)c(O)c3C(=O)N12 [CAB, Cabotegravir, reference compound]
- EC50 (HIV [2]): 0.25 to 3 nM

SMILES: O=C(NCc1ncccc1C(F)(F)F)c1cn2c(c(O)c1=O)C(=O)N1[C@@H]3CC[C@@H](C3)O[C@H]1C2 [Compound A4, (2S, 5R, 13aS)-8-hydroxy-7,9-dioxo-N-{[3-(trifluoromethyl)pyridin-2-yl]methyl}-2,3,4,5,7,9,13,13a-octahydro-2,5-methanpyrido[1′, 2′: 4,5]pyrazino[2,1-b][1,3]oxazepine-10-carboxamide]
- EC50 (HIV [4]): 33.3 nM
- Decrease in activity relative to the benzyl analogue (times lower) (HIV [5]): 13.3

SMILES: O=C(NCc1c(F)cc(F)cc1F)c1cn2c(c(O)c1=O)C(=O)N1[C@H]3CC[C@H](C3)O[C@@H]1C2 [BIC, Bictegravir]
- EC50 (HIV [4]): 2.5 nM
- EC50 (HIV [2]): 1 to 7.5 nM

SMILES: O=C(NCc1ncc(F)cc1F)c1cn2c(c(O)c1=O)C(=O)N1[C@H]3CC[C@H](C3)[C@@H]1C2 [Compound A5, (1R, 4S, 12aR)-N-[(3,5-difluoropyridin-2-yl)methyl]-7-hydroxy-6,8-dioxo-1,2,3,4,6,8,12,12a-octahydro-1,4-methanodipyrido [1,2-a: 1′, 2′-d]pyrazine-9-carboxamide]
- EC50 (HIV [4]): 17.8 nM
- Decrease in activity relative to the benzyl analogue (times lower) (HIV [5]): almost twofold decrease in activity
